Entries after “also recorded” stand apart in the source; their conditions may differ.
How the values were obtained:
[1] = target: T1, human ATP5B (Homo sapiens, UniProt P06576); experiment: GST-DHFR / MTX-phenformin GST pull-down of 35S-labeled ATP5B; format: binding
T1 construct: an attempt was made to amplify complete length cDNA of human ATP5B; made in house; host or cells: cell-free: TNT Quick Coupled Transcription/Translation System (Promega) from pcDNA-ATP5B; GST-DHFR from E. coli BL21
Description: Promega) and 0.74 MBq of a radioisotope (redivue Pro-mix L-[35S]; Amersham) and in accordance with the protocols attached thereto. A 15 μl portion of this human ATP5B protein preparation liquid and 1 μg for each of the GST protein or GST-DHFR, purified on the glutathione Sepharose beads, were mixed and shaken at 4° C. for 1 hour after adding 0.3 ml of buffer A thereto. Thereafter, the protein binding to the GST protein or GST-DHFR on beads was co-precipitated by centrifugation. After repeating this operation 4 times, proteins in the precipitate were separated by SDS polyacrylamide gel electrophoresis in accordance with a conventionally known method, and the protein bound to the probe was detected by an autoradiography.

[2] = test system: AMPK; experiment: AMPK activation ability detection in HeLa S3 cell (anti-phospho AMPK western blotting); format: cell-based, human; details: phenformin 1 mM, 1 hr; for phosphorylation level (activation) of AMPK: HeLa S3 cell without ATP5B over-expression (empty vector- or pcDNA-LKB1-transferred), concentration of compounds A and B not given; for activation of AMPK in cell over-expressing human ATP5B: pcDNA-ATP5B-transferred HeLa S3 cell, metformin 10 mM
Description: This expression plasmid pcDNA-LKB1 and the pcDNA-ATP5B prepared in the aforementioned Example 5(1) or an empty vector (pcDNA3.1) (Invitrogen) were transferred into HeLa S3 cell. The HeLa S3 cell (ATCC) was cultured in a 6 well culture plate (35 mm in well diameter) until it reached a state of 70% confluent, by adding 2 ml of a minimum essential medium DMEM (Gibco) containing 10% fetal bovine serum (Sigma) to each well of the culture plate. The medium was substituted by 1 ml per well of a serum-free medium OPTI MEM I (Invitrogen), and 3.0 μg/well of each of the empty vector (pcDNA3.1), pcDNA-LKB1 and pcDNA-ATP5B was transiently transferred using Lipofect amine 2000 (Invitrogen). After 12 hours of the culturing, this was substituted by 2 ml/well of DMEM containing 10% of fetal bovine serum from which low molecular substances had been removed by a charcoal treatment, and further cultured for 36 hours. This was further cultured for 1 hour (1 hr) under a condition of adding phenformin (Sigma) to a final concentration of 1 mM or the solvent (DMSO) alone. The medium was discarded, the cells were washed with a phosphate buffer (to be referred to as PBS hereinafter, and then the cells were lysed by adding 0.15 ml of the aforementioned buffer A (however, the NaCl concentration was 150 mM, and various phosphatase inhibitors; 2 mM Na3VO4, 10 mM NaF, 25 mM β-glycerophosphate, 0.2 mM Na2MoO4, 20 nM okadaic acid, were added). The activity of AMPK in the cells was detected at the level of phosphorylation of molecules by a conventionally known SDS electrophoresis and a western blotting which uses an anti-phosphorylation AMPK antibody (Phospho-AMPK-α(Thr172) Antibody, Daiichi Pure Chemicals). In this case, in order to confirm that there is no difference in the amount of protein of AMPKα (an AMPK subunit which undergoes phosphorylation) among samples, a western blotting which uses an anti-AMPKα antibody (Daiichi Pure Chemicals) was simultaneously carried out. […] However, in the cell in which human ATP5B was expressed by transferring pcDNA-ATP5B, activation of AMPK by phenformin treatment was not found.

[3] = target: T1, human ATP5B; experiment: competitive inhibition of binding of ATP5B and MTX-phenformin; details: MTX-phenformin 10 μM; free phenformin 10 μM; compounds A and B 'addition of 10'
[4] = test system: db/db mouse; experiment: blood sugar level and blood lactic acid level in db/db mouse after intraperitoneal administration; format: in vivo; details: db/db mice, fasting, metformin 300 mg/kg; for blood lactic acid level: compound 100 mg/kg, 0, 90, 180 minutes; for hypoglycemic action (blood sugar level): compound 100 mg/kg, 90 and 180 minutes, vs vehicle group
Text: As described in the aforementioned Example 6, the compound A and compound B found by the screening method of the present invention have the ability to activate AMPK in cells. Next, whether or not these compounds have the in vivo hypoglycemic action similar to the case of biguanide was examined. At the same time, action of the aforementioned 2 compounds on the increase of blood lactic acid value as an adverse side effect of biguanide was also examined. A total of 15 animals of 11 weeks of age of db/db mouse (BKS.Cg-+Leprdb/+Leprdb/Jcl; CLEA Japan) as a diabetes model mouse were divided into 3 groups, each consisting of 5 animals. […] They were subjected to fasting at the same time with the administration, and blood samples were collected from the tail of each animal 0 minute, 90 minutes and 180 minutes thereafter to measure blood sugar level and blood lactic acid level. The blood sugar level was measured using a simplified blood sugar analyzer (Acu Check Active II; Roche), and the blood lactic acid level was measured using a simplified lactic acid analyzer (Lactate Pro; Arkray Marketing), respectively. In the same manner, 12 animals of the db/db mouse of 18 weeks of age were divided in 3 groups, 4 animals for each. […] In the same manner as the above, they were subjected to fasting at the same time with the administration, and the blood sugar level and blood lactic acid level were respectively measured 0 minute, 90 minutes and 180 minutes thereafter in the same as described in the above.

[5] = test system: TNF-α; experiment: TNF-α gene expression in HeLa S3 cell (real time PCR, corrected by β-actin); format: cell-based, human; details: okadaic acid 50 nM
Description: The pcDNA-TARDBP or an empty vector (pcDNA3.1) (Invitrogen) was transferred into HeLa S3 cell. Illustratively, the HeLa S3 cell (ATCC) was firstly cultured in a 12 well culture plate until it reached a state of 70% confluent, by adding 1 ml of a minimum essential medium DMEM (Gibco) containing 10% fetal bovine serum (Sigma) to each well of the culture plate. The medium was substituted by 0.5 ml per well of a serum-free medium OPTI MEM I (Invitrogen), and 0.8 μg/well of the pcDNA-TARDBP or pcDNA3.1 was transiently transferred using Lipofect amine 2000 (Invitrogen). After 12 hours of the culturing, this was substituted by 1 ml/well of DMEM containing 10% of fetal bovine serum and further cultured for 12 hours. This was further cultured for 16 hours under a condition of adding or not adding okadaic acid (Wako Pure Chemical Industries) to a final concentration of 50 nM. In this case, […] was added a part of the cells simultaneously with the okadaic acid treatment. The medium was discarded, the cells were washed twice with ice-cooled PBS, and then these cells were frozen and stored at −80° C.
Total RNA was prepared from each cell frozen in the aforementioned Example 9(2), using a reagent for RNA extraction use (Isogen; Nippon Gene) and in accordance with the instructions attached thereto. The thus prepared each total RNA was then treated with a deoxyribonuclease (Nippon Gene), subjected to phenol/chloroform treatment and ethanol precipitation and dissolved in sterile water. Using 1 μg of this total RNA, its reverse transcription into a single-stranded cDNA was carried out in a system of 20 μl using a kit for reverse transcription reaction use (Advantage™ RT-for-PCR Kit; Clontech).
Six oligonucleotides (SEQ ID NO:97 to SEQ ID NO:102) were designed and synthesized as primers of PCR for the measurement of gene expression quantity. A combination of SEQ ID NO:97 and SEQ ID NO:98 was used for human β-actin gene, and a combination of SEQ ID NO:99 and SEQ ID NO:100 for human TNF-α gene, and a combination of SEQ ID NO:101 and SEQ ID NO:102 for human TARDBP gene, respectively. […]
The expression quantities of human TNF-α gene and human TARDBP gene in each sample were corrected by the expression quantity of β-actin gene based on the following equation. [Corrected expression quantity of TNF-α or TARDBP]=[expression quantity of TNF-α or TARDBP gene (raw data)/[expression quantity of β-actin gene (raw data)]
In comparing the expression quantities of TNF-α and TARDBP genes, relative amounts were calculated by regarding the expression quantity in a cell, into which an empty vector (pcDNA3.1) was transferred and which was treated only with the solvent (DMSO), as 100, with the results sown in FIG. 9 and FIG. 10. […]

binding to the ATP5B protein with increasing concentration ([1]; MTX-phenformin 1.0, 10, 100 μM) | Compound | binding with human ATP5B (band of about 60 kDa, autoradiography) ([1]; 10 μM MTX-phenformin fixed to GST-DHFR, wild type ATP5B) | phosphorylation level (activation) of AMPK [2] | activation of AMPK in cell over-expressing human ATP5B [2] | influence on binding of ATP5B and MTX-phenformin [3] | blood lactic acid level [4] | hypoglycemic action (blood sugar level) [4] | action to accelerate expression of TNF-α ([5]; TARDBP high expression cell, compared with control cell) | increase of expression of TNF-α ([5]; control cell (empty vector HeLa S3), 16 hours)
clearly detected | CN(Cc1cnc2nc(N)nc(N)c2n1)c1ccc(C(=O)N[C@@H](CCC(=O)NCCCNC(=N)NC(=N)N)C(=O)O)cc1.Cl.Cl [MTX-phenformin, (2S)-5-[(3-{[{[amino(imino)methyl]amino}(imino)methyl]amino}propyl)amino]-2-({4-[[(2,4-diaminopteridin-6-yl)methyl](methyl)amino]benzoyl}amino)-5-oxopentanonic acid dihydrochloride] | detected in the form of binding to the GST-DHFR, only under the condition of adding the MTX-phenformin | – | – | – | – | – | – | –
– | Oc1ccccc1/C=N/c1nc[nH]n1 [compound A, 2-[(E)-(1H-1,2,4-triazol-3-ylimino)methyl]phenol] | – | significant AMPK activation ability | disappeared | obstruct binding of ATP5B and MTX-phenformin | did not induce increase; also recorded: without causing in vivo accumulation of lactic acid | hypoglycemic action after 90 minutes and 180 minutes having a significant difference; also recorded: show hypoglycemic action | – | –
– | Nc1nc(Cl)c2nc[nH]c2n1 [compound B, 6-chloro-9H-purine-2-amine] | – | significant AMPK activation ability | disappeared | obstruct binding of ATP5B and MTX-phenformin | – | hypoglycemic action after 90 minutes and 180 minutes having a significant difference; also recorded: show hypoglycemic action | – | –
– | CN(C)C(=N)N=C(N)N [metformin] | – | – | not found | – | significant increase | significant hypoglycemic action | – | –
– | C=C1[C@@H](O)[C@@H]2O[C@]3(CC[C@H](/C=C/[C@@H](C)[C@@H]4CC(C)=C[C@@]5(O[C@H](C[C@@](C)(O)C(=O)O)CC[C@H]5O)O4)O3)CC[C@H]2O[C@@H]1[C@@H](O)C[C@H](C)[C@H]1O[C@@]2(CCCCO2)CC[C@H]1C [okadaic acid] | – | – | – | – | – | – | almost the same | up to 80 times

Source: patent publication US8003331B2, “Method for identifying target protein of drug and method for screening therapeutic agent for diabetes using the target protein” (Astellas Pharma Inc., priority 2005, dated 2011)
